# Measured values taken from patent US9072730B2, “Method of improving cognitive functions in individuals with down syndrome and/or alzheimer's disease” (The Board of Trustees of the Leland Stanford Junior …, priority 2009, dated 2015).
# “Also recorded” adds a separate entry of the source.
# Legend:
# acute hippocampal slices = test: Evoked field potentials in acute hippocampal slices (dentate gyrus); design: species or system mouse
# Protocol: Three and 6-month-old 2N and Ts65Dn mice were anesthetized with isoflurane before decapitation. The brain was quickly removed and immersed for 2-3 min in ice-cold artificial CSF (ACSF) [containing (in mM): 119 NaCl, 2.5 Kcl, 2.5 CaCl2, 1.3 MgSO4, 1 NaH2PO4, 26 NaHCO3, and 10 glucose], osmolarity 310, continuously bubbled with 95% 02 and 5% CO2, pH 7.4. The HC was extracted and cut in ice-cold ACSF with a vibratome (Leica 1000; Leica, Nussloch, Germany) into 350-μm-thick transverse slices, which were allowed to recover in oxygenated ACSF at 32° C. for 30 min, and then at room temperature for an additional 1-10 hr before experimental recordings. Slices were transferred into the recording chamber and superfused with ACSF at a constant rate of 2.5 ml/min at a temperature of 32° C. Recording electrodes were made of borosilicate glass capillaries (1B150F, World Precision Instruments, Sarasota, Fla.) and were filled with 2M NaCl (resistance […]). Mono polar stimulating electrode was maid of Pt/Ir wires with diameter 25.4 μm (PTT0110, World Precision Instruments, Sarasota, Fla.) and had 100-μm-long exposed tip. The stimulating electrode was inserted under visual control perpendicular to the slice surface into the middle molecular layer (MML), and the recording electrode into the granule cell layer of the DG upper blade. The distance between the electrodes was 250-300 μm. Testing stimuli evoked field responses with population spike amplitudes 65-75% of maximum. The amplitude of the population spike was measured as follows: a line was drawn at the base of the population spike connecting the first and second peaks of the field response, a second line was drawn at the peak of the population spike (i.e., at the peak of the downward deflection), and at the peak of the spike, a line was drawn vertically between these two lines, thus giving the amplitude of the population spike. The magnitude of the fEPSP was measured as the initial slope of the linear part of the fEPSP, which occurred 0.1-1 ms after the presynaptic volley. […]
# Ts65Dn mice [1] = test: Contextual and tone-cued fear conditioning test; type: in vivo, mouse
# Protocol: Contextual and tone-cued fear conditioning tests were performed using the Fear Conditioning Video Tracking System (Med-Associates Inc., St. Albans, Vt.). To reduce the stress, each mouse was handled for 5 days. After that, the mice underwent three days of Training day, Tone-Cued in novel context testing day, and Contextual testing day. In the first day, mice went through the Training session. Prior to conditioning, each mice had 3 min to explore the Test Chamber (baseline activity and then they received five tone-shock pairings). The shock (0.5 mA, 50 Hz, 2 sec) delivered after 18 sec from the end of the tone (70 dB, 2 kHz, 20 sec). Therefore, an empty trace interval interposed between the tone and the shock in each conditional stimulus-unconditional stimulus pairing. On the second day (Tone-cued testing day), mice were placed in the novel context (new olfactory and visual cues) for 3 min and subsequently were presented three tone presentations (same as the Training Day) without any shocks. On the last day of the experiment, mice were placed in the context similar to the Training Day for 5 min without any tones or shocks. The effect of L-DOPS on fear conditioning was investigated by treating Ts65Dn mice and their controls 5 hours before the start of each test. The treated mice underwent three days of Training day, Cued testing day and Contextual testing day. L-DOPS was diluted (20 mg/ml) in 0.2M HCL containing 2 mg/ml ascorbic acid. The pH was neutralized with 10M NAOH just before the injection. To counter the peripheral effects of L-DOPS, S-(−) carbidopa was used. Carbidopa was diluted in the same solution (2.5 mg/ml) as L-DOPS. Two groups (10 pairs each) of 5-6-month-old male Ts65Dn and 2N mice were either injected with carbidopa (2.5 mg/ml) or a combination of 20 mg/ml L-DOPS and 2.5 mg/ml carbidopa (50 μl/g subcutaneously) five hours before the start in all 3 days of the experiment. Six-months-old 2N (CD=13, CD+L-DOpS=11) and Ts65Dn (CD=10, CD+L-DOPS=9) mice were used for this study. The effect of β1-partial agonist (xamoterol) on Ts65Dn mice and their controls […]. Xamoterol hemifumarate (Tocris Bioscience, Ellisville, Mich.) was freshly diluted in saline. Two groups of 9-month-old (19 2N and 15 Ts65Dn) mice were subcutaneously injected either with xamoterol (3 mg/kg) or saline (10 ml/kg) exactly […] before all 3 days of fear conditioning test. Nine-months-old 2N (saline=4, xamoterol=8), and Ts65Dn (saline=4, xamoterol=6) mice were used for this study. The data tested using one-way analysis of variance (ANOVA) between the genotypes. The significance of genotype and treatment effects was confirmed by a non-parametric Mann-Whitney U-tests.
# [2] = based on the literature; cited from earlier work
# [3] = Norepinephrine and L-DOPS determination in tissue by UV-HPLC; type: in vivo, mouse
# Protocol: Mice were deeply anesthetized using sodium pentobarbital (200 mg/kg i.p.) and brains were extracted immediately. The right hippocampal region dissected out on ice, weighed, and frozen shortly after. The rest of the right hemisphere was also weighed and collected. For homogenization, 1 ml of ice-cold 0.05 M phosphoric acid (Sigma) with 10 μl of […] of 3,4-Dihydrxybenzylamine hydrobromide (DHBA; Sigma) used as an internal standard. The tissue samples were sonicated for 3 seconds on ice. The resulting homogenates were centrifuged at 15,000 g for 15 minutes at 4° C. The resulting supernatant was transferred to a conical tube containing 1 ml of 3M tris (pH: 8.6) with 90 mg acid-washed aluminum oxide (Sigma). The mixture was rotated at 4° C. overnight. The alumina was centrifuged for 10 seconds, and washed briefly with 6 mM tris (pH: 8.6) and 3 changes of water (HPLC grade). After final centrifugation, the resulting precipitate was mixed with 1.8 ml of 0.05M H3PO4 (Sigma, puriss>99%) for 30 minutes at 4° C. The solution was filtered with a 0.2 μm filter and used for UV-based HPLC. 4.5 months-old (N=4 pairs of 2N and Ts65Dn) and 18 months (2N; N=8 and Ts65Dn; N=6) were used for this study.
# A UV-HPLC machine (Varian, Chicago) equipped with an auto sampler and 2 pumps was used for this study. The machine was connected to a Varian column (Pursuit PFP, 150 mm×4.6 mm, 5 μm, A3050150×046) optimized for catecholamine measurements in aqueous conditions. The mobile phase was consisted of 60% 0.1M citric acid (Sigma) and 40% 0.1M Na2HPO4 both in 0.3 mM HPLC-grade sodium octyl sulfate salt (Sigma) (7). The mobile phase was degassed using 0.2 μm filter and refreshed every week. The flow rate was set at 1.0 ml/min at room temperature and the detection was performed at 270 nm. To achieve maximum performance, the mobile phase was pumped at 0.1 ml/min flow the night before the experiment. The column was washed thoroughly with 50% methanol after each experiment. To calculate the amounts of catecholamines, the height of the peak generated by DHBA, NE, and L-DOPS were measured using Variant software. […]
# [4] = subcutaneous administration; cited from earlier work
# Ts65Dn mice [5] = test: Nesting behavior analysis; type: in vivo, mouse
# Protocol: The nesting experiment was performed using 10 pairs of 6-month-old male Ts65Dn (CD=10, CD+L-DOPS=10) and 2N (CD=10, CD+L-DOPS=10) mice. The nesting behavior was analyzed in three different periods (sham, drug and no treatment): Each mouse was placed in individual mouse cages for 4 days. On day 5, each mouse was injected subcutaneously at 1 PM with 50 μl/g of (2.5 mg/ml) carbidopa (Sigma) and returned to their individual cages. The next day, mice were injected the same amount of carbidopa as the day before at 1 PM. At 6 PM, the mice were transferred to a rat cage and one nestlet was placed in each cage. Next morning, the nesting was scored by three investigators blind to the genotype. This was followed by weighing the remaining nestlets. Following the sham experiment, mice were returned to their individual mouse cages without any nestlets for 6 days. On day 7, the mice were injected subcutaneously (50 μl/g) of a combination of (20 mg/ml) L-DOPS and carbidopa (2.5 mg/ml) at 1 PM and were returned to their individual mouse cages. Next day the injection was repeated at 1 PM and at 6 PM the mice were transferred to clean rat cage with one nestlet. The quality and quantity of nesting was scored the morning after. The mice were kept in individual cages for two weeks to minimize the effects of L-DOPS treatment on nesting. […] The quality and quantity of nesting was scored the morning after.
smiles,measurement,setting,value
CC(C)NCC(O)c1ccc(O)c(O)c1 (stereo not drawn) [ISO],"effect on slope of fEPSPs, Ts65Dn versus 2N","acute hippocampal slices; 6-month-old mice, stimulation of middle molecular layer, recording in granule cell layer",stronger effects on slope of fEPSPs in Ts65Dn than 2N mice
same,"recorded response 30 min after application, Ts65Dn versus 2N","acute hippocampal slices; ISO 10 μM, 10 min, slices of 6-month old Ts65Dn and age-matched 2N",much stronger response in Ts65Dn than 2N mouse
same,change in population spike amplitude of fEPSPs,"acute hippocampal slices; ISO 10 μM, 3- and 6-months-old 2N and Ts65Dn mice",significant increase in population spike amplitude
same,duration of enhancement of population spike amplitude,"acute hippocampal slices; ISO 10 μM, 3-month-old 2N mice",at least 30 min
same,duration of increase of population spike amplitude,"acute hippocampal slices; ISO 10 μM, 6 months old mice",> 1 h
same,slope and amplitude of excitatory postsynaptic potentials (EPSPs),"acute hippocampal slices; slices at age 3 months and 6 months, 2N and Ts65Dn mice",increase in both the slope and amplitude
same,EPSP responses in Ts65Dn slices compared with 2N,acute hippocampal slices; slices at age 6 months,consistently more robust
O=C(NCCNCC(O)COc1ccc(O)cc1)N1CCOCC1 (stereo not drawn) [xamoterol],contextual learning / contextual discrimination (freezing on contextual day),"Ts65Dn mice [1]; 9-month-old Ts65Dn mice, xamoterol 3 mg/kg s.c. 1 hour before each test, control saline",restored failed contextual learning; also recorded: found to restore contextual learning; also recorded: contextual learning failure was reversed; also recorded: acted to restore contextual learning; also recorded: significant improvement; also recorded: significant restoration of contextual discrimination
same,difference between 2N and Ts65Dn mice in percent of freezing on contextual day,"Ts65Dn mice [1]; xamoterol treated 2N vs Ts65Dn, ANOVA F=0.392, p=0.844",no longer any differences were found
"N[C@H](C(=O)O)[C@H](O)c1ccc(O)c(O)c1 [L-DOPS, L-threo-3,4-dihydroxyphenylserine]",dose used safely in humans,[2],up to 1 gram per day
same,NE levels in the HC of Ts65Dn mice relative to 2N mice,[3]; after L-DOPS 1 mg/g with carbidopa 0.125 mg/g,96%
same,L-DOPS levels in tissues,"[3]; six hours after administration, 2N and Ts65Dn mice, L-DOPS 1 mg/g with carbidopa 0.125 mg/g","present in all tissues, including brain"
same,"L-DOPS tissue levels, difference between genotypes","[3]; six hours after administration, 2N vs Ts65Dn, p=0.4894",no difference between genotypes
same,time to maximum brain NE levels,[4],≤ 5 h
same,contextual memory / contextual learning (freezing on contextual day),"Ts65Dn mice [1]; 6-month-old Ts65Dn mice, 20 mg/ml L-DOPS + 2.5 mg/ml carbidopa, 50 μl/g s.c., 5 hours before each test, control carbidopa alone",significant improvement in contextual memory; also recorded: found to restore contextual learning; also recorded: able to alleviate cognitive failure; also recorded: contextual learning failure was reversed; also recorded: acted to restore contextual learning
same,difference in freezing between 2N and Ts65Dn mice in contextual test,"Ts65Dn mice [1]; L-DOPS + carbidopa treated 2N vs Ts65Dn, One-way ANOVA p=0.5247",restored fully the difference in freezing; also recorded: no significant difference between the two groups
same,freezing measured on a minute-by-minute basis in contextual test,Ts65Dn mice [1]; L-DOPS + carbidopa treated Ts65Dn mice,increased freezing following the first minute
same,reduction of the deficiency in Ts65Dn mice,Ts65Dn mice [1]; L-DOPS treatment versus no treatment,80%
same,how much less Ts65Dn mice remembered than their controls after treatment,"Ts65Dn mice [1]; after treatment with L-DOPS, without treatment 44% less",8%
same,nesting behavior,"Ts65Dn mice [5]; drug period: L-DOPS 20 mg/ml + carbidopa 2.5 mg/ml, 50 μl/g s.c., p=0.0245",improved nesting; also recorded: significant improvement in the nesting behavior
same,nesting behavior after cessation of treatment,"Ts65Dn mice [5]; no treatment (washout) period of two weeks, p=0.0121",again showed poor nesting behavior; also recorded: vanished 2 weeks later
